Measured values as given in paper PMC11215747, “Improved Rigidin-Inspired Antiproliferative Agents with Modifications on the 7-Deazahypoxanthine C7/C8 Ring Systems” (Journal of Medicinal Chemistry, 2024).
“Also recorded” adds a separate entry of the source. Where two headings read alike, the source gives them in different places.

What was measured:
PANC-1 cells = assay: MTT cytotoxicity assay against PANC-1 cells; type: cell-based; conditions: Homo sapiens; PANC-1 cell line
Experimental: (§1) The 3-(4,5-dimethylthiazol-2-yl)-2,5-diphenyltetrazolium bromide (MTT) assay was employed to evaluate the antiproliferative activities of the synthesized 7-deazahypoxathine analogues. The HeLa, PNT1A, or PANC-1 cell lines were assessed by trypsinizing and seeding 4 × 10^3 cells per well into 96-well plates. Synthesized compounds were dissolved in DMSO at a concentration of either 50 mM or 100 mM before cell treatment. Cells were grown for 24 h and then treated with compounds at concentrations ranging from 0.04 to 100 μM and incubated for 48 h in 200 μL media. Twenty microliters of MTT reagent in serum-free medium (5 mg/mL) was added to each well and incubated further for 2 h. Media was removed and the resulting formazan crystals were resolubilized in 200 μL of DMSO. A Thermomax Molecular Device plate reader was utilized to measure A490. Experiments were performed in quadruplicate and repeated at least twice for each compound. The control comprised of cells treated with 0.1% DMSO. One micromolar phenyl arsine oxide (PAO) was utilized as a positive killing control.

HeLa cells [1] = assay: Annexin V apoptosis assay and cell-fate tracking in HeLa cells; type: cell-based, Human; conditions: 20 nM; for apoptosis at the 30 hour time point (Annexin V fluorescence): 6 biological replicates, one-way ANOVA amongst compounds; for total numbers of cells that died following mitotic arrest: single-cell tracking, >130 cells per treatment
Experimental: To directly assess apoptosis in living cells, HeLa cells were plated (six biological replicates per condition) in 96-well Imagelock Plates (Sartorius BA-04855) at a density of 1,562.5 cells/cm^2. The following day, cells were placed in media containing IncuCyte Annexin V Dye (Sartorius 4642) supplemented with either 0.1% Dimethyl sulfoxide or test compounds (20 nM), and plates were placed in a Sartorius Incucyte S3 live cell imaging system. Plates were scanned hourly, with phase contrast and green fluorescence images were acquired at three positions per well. Raw fluorescence data was processed using Incucyte software, and Prism Graphpad was used for data visualization and statistical analysis. To track individual cell fates, combined phase contrast/fluorescence time lapse sequences were exported from multiple wells per condition, and cell fates individual cells were scored and tabulated using Graphpad Prism software.

HeLa cells [2] = assay: Live cell imaging of EGFP-tubulin expressing HeLa cells; type: cell-based, Human; conditions: 7.5 nM (50% of GI50), 4 h
Experimental: HeLa cells were plated on 35 mm glass-bottomed Mattek dishes (Mattek, code P35G-1.5–14-C). Next day, transient transfection of EGFP-tubulin was performed using a Lipofectamine 2000 (Thermofisher code 11668019) according to the manufacturer’s instructions. After 6 h of transfection, cells were cultured in fresh media overnight before being treated with either 0.1% DMSO or 7.5 nM analogue 33 for 4 h. To visualize chromatin, cells were cultured in the presence the cell permeant NucSpot Live nuclear stain (Biotium code 40082) for 60 min prior to imaging. Cells were imaged live using an Andor Dragonfly 505 spinning disk confocal system mounted on an Olympus IX83 inverted microscope. Cell viability was maintained by an Oko Touch prewarmed (37 °C) temperature-controlled microscope stage supplied with 5% CO2. Z-stacks (10 planes at […] intervals) were acquired every 2 min using a 60× Aprochromat silicon objective (NA 1.30) and an Andor iXon 888 EMCCD camera driven by Andor Fusion software. Fusion IMS files were converted to tiff images and avi movies using FIJI, and figures were prepared in Adobe Photoshop CS5.

HeLa cells [3] = assay: Microtubule organization by immunolabeling in HeLa cells; type: cell-based, Human; conditions: 4 h
Experimental: To examine microtubule morphology in rigidin-treated cells, HeLa cells were incubated for 4 h in the presence or absence of test compound before being fixed with 3.7% formaldehyde in PBS and permeabilized with 0.1% Triton X-100 in PBS. After blocking the cells with 3% bovine serum albumin in PBS, they were probed with antibodies for the centromere marker CENP-B (Abcam, code ab25734) and tubulin (Sigma, code sc-53029), which were detected with Alexa Fluor-labeled secondary antibodies (Thermofisher). Hoechst 33342 (1 mg/mL, Thermofisher H3570) was used to stain DNA. Samples were mounted on glass slides and imaged using Andor Dragonfly 505 spinning disk confocal system mounted on an Olympus IX83 inverted microscope. Figures were created with Adobe Photoshop CS5. All drugs were resuspended in DMSO, and 0.1% DMSO served as a carrier control.

PNT1A cells = assay: MTT cytotoxicity assay against normal epithelial cell line PNT1A; type: cell-based; conditions: Homo sapiens, PNT1A
Experimental: as §1

tubulin = target: T1, tubulin (Sus scrofa, UniProt P02554); assay: Fluorescence-based tubulin polymerization assay; type: biochemical; conditions: 25 μM, relative to 1% DMSO control, averaged from two experiments
T1 construct: purchased Cytoskeleton, Inc
T1 sequence (P02554 whole entry): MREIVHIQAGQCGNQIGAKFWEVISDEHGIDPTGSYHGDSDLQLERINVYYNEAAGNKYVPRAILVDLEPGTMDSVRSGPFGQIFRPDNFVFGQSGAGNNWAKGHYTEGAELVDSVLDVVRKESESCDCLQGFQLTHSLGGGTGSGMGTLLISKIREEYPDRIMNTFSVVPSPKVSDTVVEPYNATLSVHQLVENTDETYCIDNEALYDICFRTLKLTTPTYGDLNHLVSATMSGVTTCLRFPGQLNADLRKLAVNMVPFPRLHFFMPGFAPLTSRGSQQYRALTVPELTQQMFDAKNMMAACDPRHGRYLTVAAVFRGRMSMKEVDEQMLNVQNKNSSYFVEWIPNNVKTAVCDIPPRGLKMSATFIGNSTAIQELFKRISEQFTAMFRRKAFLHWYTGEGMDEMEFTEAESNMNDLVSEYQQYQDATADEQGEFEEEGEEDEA
T1 sequence (P02550 whole entry partner): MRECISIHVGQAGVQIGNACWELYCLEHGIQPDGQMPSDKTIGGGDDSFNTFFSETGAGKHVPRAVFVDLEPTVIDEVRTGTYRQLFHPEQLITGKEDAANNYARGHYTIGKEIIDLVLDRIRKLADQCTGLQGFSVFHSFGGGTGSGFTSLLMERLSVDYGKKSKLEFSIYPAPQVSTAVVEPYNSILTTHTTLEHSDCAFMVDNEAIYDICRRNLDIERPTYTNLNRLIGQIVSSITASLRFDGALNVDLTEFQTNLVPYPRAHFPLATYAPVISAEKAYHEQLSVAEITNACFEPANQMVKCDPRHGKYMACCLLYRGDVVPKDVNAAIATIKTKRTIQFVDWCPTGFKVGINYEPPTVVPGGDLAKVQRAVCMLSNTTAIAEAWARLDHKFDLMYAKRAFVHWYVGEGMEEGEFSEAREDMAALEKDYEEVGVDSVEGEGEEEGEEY
Experimental: The fluorescence-based tubulin polymerization assay from Cytoskeleton, Inc. was used. […] The tubulin reaction mixture was prepared per manufacturer’s instructions, kept on ice, and used within ∼15 min of preparation. A Biotek Synergy H4 hybrid multimode plate reader was preheated to 37 °C. Prior to starting the assay, a half-area black 96-well plate was preheated within the plate reader. A volume of 5 μL of each of the tested samples was pipetted into separate wells of the plate and incubated in the warm plate reader for 1 min.

HeLa cells [4] = assay: MTT antiproliferative assay against HeLa cells; type: cell-based, Human; conditions: Homo sapiens, MTT, 48 h, average and SD from two independent determinations, each in quadruplicate (footnote c), read-out: GI50 (μM) ± SD
Experimental: as §1, with “control. […]” for “control.”

MCF-7 cells = tested on: MCF-7 cells; set-up: method as in PMID 26641132; conditions: cited from earlier work
colon cancer = tested on: colon cancer; set-up: method as in PMID 26641132; conditions: mouse model for colon cancer, 3 mg/kg; cited from earlier work
human colon cancer lines = tested on: human colon cancer lines; set-up: method as in PMID 26641132; conditions: several human colon cancer lines; cited from earlier work
[5] = tested on: WI38 embryonic lung fibroblast cell line; set-up: method as in PMID 26641132; conditions: fold less active; cited from earlier work

SMILES | GI50 (PANC-1 cells) [nM] | apoptosis at the 30 hour time point (Annexin V fluorescence) (HeLa cells [1]) | total numbers of cells that died following mitotic arrest (HeLa cells [1]) [%] | mitotic progression in live cell imaging (HeLa cells [2]) | effect on interphase microtubules (HeLa cells [3]; at GI50 concentrations) | effect on spindle morphology (HeLa cells [3]; at GI50 concentrations) | syntelic chromosome attachments (HeLa cells [3]; lower concentrations (GI25)) | GI50 (PNT1A cells; molecular formula strings CSV, read-out: PNT1A GI50) [nM] | effect on in vitro tubulin polymerization (tubulin) | GI50 (HeLa cells [4]) [µM] | GI50 (MCF-7 cells) [nM] | body weight (colon cancer) | side effects (colon cancer) | tumor size (colon cancer) | GI50 (PNT1A cells; read-out: PNT1A GI50(mM)) [nM] | GI50 values (human colon cancer lines) | activity against WI38 compared to four colorectal cancer cell lines [5]
C#CCCCc1nc(=O)c2c(-c3ccccc3)c(C(=O)c3ccc(OCCOCC)cc3)[nH]c2[nH]1 [Compound 33, 6-[4-(2-Ethoxyethoxy)benzoyl]-2-(pent-4-yn-1-yl)-5-phenyl-1,7-dihydro-4H-pyrrolo[2,3-d]pyrimidin-4-one] | 15 | no significant differences | 86 | various responses ranging from correcting the syntelic attachments and progressing through mitosis to prolonged prometaphase arrest, followed by mitotic exit and/or cell death | no striking effects on interphase microtubules | remarkable effects on the spindle morphology | still prevalent | 24 ± 5 | potent inhibition of microtubule assembly; also recorded: completely suppress tubulin polymerization | 0.015 ± 0.004 | – | – | – | – | – | – | –
C#CCCCc1nc(=O)c2c(-c3ccccc3)c(C(=O)c3ccccc3)[nH]c2[nH]1 [Compound 1, 6-Benzoyl-2-(pent-4-yn-1-yl)-5-phenyl-1,7-dihydro-4H-pyrrolo[2,3-d]pyrimidin-4-one] | – | no significant differences | 75 | – | – | – | – | – | – | – | 35 | maintaining body weight | no observable side effects | significant tumor size reduction | 36 ± 9 | approaching single-digit nanomolar values | approximately 1000 fold
